The values that follow come from patent US20230279020A9, “CARM1 INHIBITORS AND USES THEREOF” (Epizyme, Inc., priority 2013, published 2023).

As a reminder, the IC50 is the point on the concentration scale where inhibition reaches its midpoint.

Human CARM1 (PRMT4), sequence (Q86X55 other isoform, or with tags, fused parts or gaps isoform Q86X55-1): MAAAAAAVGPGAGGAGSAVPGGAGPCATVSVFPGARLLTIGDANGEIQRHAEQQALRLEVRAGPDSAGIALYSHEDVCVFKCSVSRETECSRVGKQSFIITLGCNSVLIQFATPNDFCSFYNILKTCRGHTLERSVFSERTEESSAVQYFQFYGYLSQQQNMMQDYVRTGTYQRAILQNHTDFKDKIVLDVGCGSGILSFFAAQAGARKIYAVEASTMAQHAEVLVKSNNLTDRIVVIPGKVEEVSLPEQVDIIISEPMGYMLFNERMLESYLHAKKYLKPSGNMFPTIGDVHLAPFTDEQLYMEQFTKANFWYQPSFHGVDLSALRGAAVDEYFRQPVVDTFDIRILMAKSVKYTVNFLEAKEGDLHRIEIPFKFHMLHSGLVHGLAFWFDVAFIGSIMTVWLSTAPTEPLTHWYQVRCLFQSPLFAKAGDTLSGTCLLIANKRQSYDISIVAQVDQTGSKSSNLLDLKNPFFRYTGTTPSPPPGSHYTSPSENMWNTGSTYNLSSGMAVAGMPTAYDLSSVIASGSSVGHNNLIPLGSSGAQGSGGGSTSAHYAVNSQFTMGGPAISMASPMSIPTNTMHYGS

The assay has as its target Human CARM1 (PRMT4) (Homo sapiens (Human), UniProt Q86X55). Put plainly: CARM1 enzyme assay on peptide substrate (3H-SAM Flashplate). Particulars: Biochemical potencies, classification codes; read-out: Biochem IC50.
Turning to `CNCC(O)COc1cccc(-c2nc(N3CCNC(=O)C3)cc(N(C)C3CCOCC3)n2)c1` (stereo not drawn) [Example 575-1a], the IC50 is less than 100 nM.

In the case of `CNCC(O)COc1cccc(-c2nc(N3CCN4C(=O)OC[C@@H]4C3)cc(N(C)C3CCOCC3)n2)c1` (stereo partly drawn) [Example 576-1a], the IC50 is less than 100 nM.

Take `CNCC(O)COc1cc(Cl)cc(-c2nc(C(=O)N(C)CC3CCOCC3)cc(N(C)C3CCOCC3)n2)c1` (stereo not drawn) [Example 577-1a]: the IC50 was less than 100 nM.

For `CNCC(O)COc1cccc(-c2nc(N3CCN(CCF)[C@@H](C)C3)cc(N(C)C3CCOCC3)n2)c1` (stereo partly drawn) [Example 578-1a], the IC50 is less than 100 nM.

Consider `CNCC(O)COc1cccc(-c2nc(N3CCC4(CCO4)CC3)cc(N(C)C3CCOCC3)n2)c1` (stereo not drawn) [Example 579-1a], for which the IC50 is less than 100 nM.

For the molecule `CNCC(O)COc1cccc(-c2nc(-c3cncn3C)cc(N(C)C3CCOCC3)n2)c1` (stereo not drawn) [Example 580-1a], the IC50 is less than 100 nM.

Regarding `CNCC(O)COc1cccc(-c2nc(N3CCN(C(=O)OC)[C@@H](C)C3)cc(N(C)C3CCOCC3)n2)c1` (stereo partly drawn) [Example 581-1a], the IC50 is less than 100 nM.

On to `CNCC(O)COc1cc(Cl)cc(-c2nc(-c3ccnc(N(C)C)c3)cc(N(C)C3CCOCC3)n2)c1` (stereo not drawn) [Example 609-1a], for which the IC50 is less than 100 nM.

Regarding `CNCC(O)COc1cc(Cl)cc(-c2nc(-c3cnn(C)c3)cc(N(C)C3CCOCC3)n2)c1` (stereo not drawn) [Example 610-1a], the IC50 was less than 100 nM.

`CNCC(O)COc1cc(Cl)cc(-c2nc(-c3ccncc3)c(Br)c(N(C)C3CCOCC3)n2)c1` (stereo not drawn) [Example 611-1a]: the IC50 was less than 100 nM.

In the case of `CNCC(O)COc1cc(Cl)cc(-c2nc(-c3cnc4ccccc4n3)c(C)c(N(C)C3CCOCC3)n2)c1` (stereo not drawn) [Example 612-1a], the IC50 is less than 100 nM.

On to `CNCC(O)COc1cccc(-c2nc(-c3ccc(C(F)(F)F)nc3)cc(N(C)C3CCOCC3)n2)c1` (stereo not drawn) [Example 613-1a], for which the IC50 was less than 100 nM.

Turning to `CNCC(O)COc1cc(Cl)cc(-c2nc(-c3ccc(N(C)C)nc3)c(C)c(N(C)C3CCOCC3)n2)c1` (stereo not drawn) [Example 614-1a], the IC50 was less than 100 nM.

For `CNCC(O)COc1cccc(-c2nc(C3CCNCC3)cc(N(C)C3CCOCC3)n2)c1` (stereo not drawn) [Example 615-1a], the IC50 is less than 100 nM.

As for `CNCC(O)COc1cccc(-c2nc(-c3cccc4ncccc34)cc(N(C)C3CCOCC3)n2)c1` (stereo not drawn) [Example 616-1a], the IC50 was less than 100 nM.

On to `CNCC(O)COc1cc(Cl)cc(-c2nc(-c3cn[nH]c3)c(C)c(N(C)C3CCOCC3)n2)c1` (stereo not drawn) [Example 617-1a], for which the IC50 is less than 100 nM.

Consider `CNCC(O)COc1cc(Cl)cc(-c2nc(N(C)C3CCOCC3)c(C)c(-n3cccn3)n2)c1` (stereo not drawn) [Example 618-1a], for which the IC50 is less than 100 nM.

As to `C=C(C)c1cc(N(C)C2CCOCC2)nc(-c2cc(Cl)cc(OCC(O)CNC)c2)n1` (stereo not drawn) [Example 619-1a], the IC50 was less than 100 nM.

Take `CNCC(O)COc1cccc(-c2nc(-c3cnc4nccn4c3)cc(N(C)C3CCOCC3)n2)c1` (stereo not drawn) [Example 620-1a]: the IC50 was less than 100 nM.

For the molecule `CNCC(O)COc1cccc(-c2nc(C3=CCCC3)cc(N(C)C3CCOCC3)n2)c1` (stereo not drawn) [Example 621-1a], the IC50 was less than 100 nM.

Take `CNCC(O)COc1cccc(-c2nc(-c3cccc(C#N)c3)cc(N(C)C3CCOCC3)n2)c1` (stereo not drawn) [Example 622-1a]: the IC50 was less than 100 nM.

For the molecule `CNCC(O)COc1cc(Cl)cc(-c2nc(C(=O)OC)cc(N(C)C3CCOCC3)n2)c1` (stereo not drawn) [Example 623-1a], the IC50 was less than 100 nM.

As to `CNCC(O)COc1cccc(-c2nc(-c3nc(C)cs3)cc(N(C)C3CCOCC3)n2)c1` (stereo not drawn) [Example 624-1a], the IC50 was less than 100 nM.

`CNCC(O)COc1cc(Cl)cc(-c2nc(-c3ccncc3)cc(N3CCOCC3)n2)c1` (stereo not drawn) [Example 632-1a]: the half-inhibitory concentration (IC50) is less than 100 nM.

Consider `CNCC(O)COc1cccc(-c2nc(NC3CCOCC3)c(C)c(N3CCN(C(C)C)CC3)n2)c1` (stereo not drawn) [Example 644-1a], for which the IC50 was less than 100 nM.

For the molecule `CNCC(O)COc1cccc(-c2nc(NC3CCOCC3)cc(-c3ccc4c(c3)OCCO4)n2)c1` (stereo not drawn) [Example 657-1a], the IC50 is less than 100 nM.

For the molecule `CNCC(O)COc1cccc(-c2nc(NC3CCOCC3)cc(-c3ccc(OC)c(OC)c3)n2)c1` (stereo not drawn) [Example 658-1a], the IC50 was less than 100 nM.
